No end group written: not given here.
Legend:
E. coli (EC; ATCC 10536) = experiment: Antibacterial activity of synthetic NB_AMPs, microtiter plate method (MIC); assay type: cell-based, Escherichia coli
Protocol: (§1) The cell-free supernatant of all E. coli DH5α strains containing cloned AMPs was collected after 24 h of culture and filtered through a 0.2 μm syringe (mixed cellulose esters (MCE), Merck, Darmstadt, Germany), and finally the cell-free supernatant was used for the evaluation of antibacterial activity. The cell-free supernatant from the E. coli DH5α, harboring only the plasmid vector without the NB_AMP genes, was confirmed as a negative control to have very little effect on antibacterial activities. The synthesized AMPs were suspended at a concentration of 10 mg/mL in distilled water and then used for antibacterial activity. The antibacterial activity against the Gram-negative bacterium, E. coli (EC; ATCC 10536), and the Gram-positive bacterium, Staphylococcus aureus (SA, ATCC 6538), was analyzed using the microtiter plate method and expressed as minimal inhibition concentration (MIC); the bacteria pre-cultured overnight (O/N) were cultured at 10^6 CFU/mL with the cell-free supernatant or the synthetic peptides, the reaction mixtures were added to the microtiter plate, and finally the reactivity was observed by O/N culture at 37 °C.

[1] = test system: Staphylococcus aureus (SA, ATCC 6538); experiment: as above; assay type: cell-based
Protocol: as §1

[2] = synthetic peptides, microtiter plate, 10^6 CFU/mL, O/N culture at 37 °C, peptide stock 10 mg/mL in distilled water

| Sequence | MIC50 against E. coli (E. coli (EC; ATCC 10536); ATCC 10536, 24 h) | MIC50 against S. aureus ([1]; ATCC 6538, 24 h) | MIC50 against E. coli (E. coli (EC; ATCC 10536); [2]) | MIC50 against S. aureus [1, 2] |
| --- | --- | --- | --- | --- |
| FFGRFKKEK [NB_AMP10] | 2600 µg/mL | 2110 µg/mL |  |  |
| GLQKYLSWVKNKRL [NB_AMP2] |  |  | 170 µg/mL | 230 µg/mL |
| GQYNQGGYGSQGGDYGQGGYGQGSMGGGYG [NB_AMP6] |  |  | 9430 µg/mL | 5830 µg/mL |
| KGAKKAGKAVKKTVKK [NB_AMP3] |  |  | 3430 µg/mL | 2880 µg/mL |
| KKLAAKEKAAAAKEKEAAKKAAAKEKK [NB_AMP9] |  |  |  | 5050 µg/mL |
| NTLSSIASLLKK [NB_AMP5] | 10210 µg/mL | 3240 µg/mL |  |  |
| NYKLLSNSLNILL [NB_AMP8] |  |  |  | 8360 µg/mL |
| WQEIKNSLEDLSDSI [NB_AMP4] |  |  | 4960 µg/mL | 2950 µg/mL |
